Assay results reported in PMC12040169 (PLOS Biology, 2025).

test: in vitro; details: human, hela cells

With O=C(NCCc1ccccc1)c1ccc(N2CCN(C(=O)c3ccccc3C(F)(F)F)CC2)nn1 [CBK153212] the viability at 28.5 h, 10 µM was 83.2%.

same assay, conditions: human, hela cells, % viability

Going from O=C(O)CCCCC1SCC2NC(=O)NC21 (centres unmarked) [CBK012026G] to CN(Cc1ccccc1)C(=O)c1c[nH]nc1C1CCCN(CC2CCCCC2)C1 (centres unmarked) [CBK286489], the viability at 28.5 h, 10 µM falls from 105% to 94.4%.

Going from COc1ncc(-c2cccc(NCC(c3cccnc3)N(C)C)n2)c(OC)n1 (centres unmarked) [CBK037723] to COc1ccc(-c2cccc(Nc3cccnc3)n2)cc1OC [CBK037644], the viability at 28.5 h, 10 µM falls from 104% to 94.6%.

First: O=C(CSc1nnc(-c2ccccc2)n1-c1ccc(Cl)cc1)NCc1ccco1 [CBK266637]
Second: S=C(NCCc1ccc(Cl)cc1)NCc1ccco1 [CBK266812]
The viability at 28.5 h, 10 µM of the first is higher: 99.2% for the first, 83.3% for the second.

Compared with COC(=O)CCNc1nc(-c2ccc(Br)cc2)nc2ccccc12 [CBK263628], CC(=O)NCCNC(=O)c1cc(Br)cnc1NCCOc1ccccc1 [CBK076232] is higher in viability at 28.5 h, 10 µM: 97.9% for the first, 103% for the second.

Compared with Cc1cc(S(=O)(=O)N(c2ccc(C(C)(C)C)cc2)C2CCNCC2)c(C)s1 [CBK165075T], Cc1cc(S(=O)(=O)N2CCN(c3ccc(Cl)cc3)CC2)c(C)cc1Cl [CBK044965] is higher in viability at 28.5 h, 10 µM: 105% for the first, 114% for the second.

Going from COc1cc(Nc2cncc(-c3ccc4ccccc4c3)n2)cc(OC)c1OC [CBK065176] to CCN(CC(=O)Nc1ccc(OC)c(Cl)c1)S(=O)(=O)c1ccc2ccccc2c1 [CBK267910], the viability at 28.5 h, 10 µM rises from 61.7% to 92.9%.

Going from COc1cccc(C(=O)Nc2nnc(-c3ccco3)o2)c1 [CBK287421] to CC(Oc1cccc(Cl)c1)c1nc(-c2cccs2)no1 (centres unmarked) [CBK293984], the viability at 28.5 h, 10 µM falls from 106% to 90.8%.

Compared with O=C(COc1ccccc1)N/N=C/c1ccc[nH]1 [CBK261281], FC(F)(F)c1ccnc(SCCOc2ccccc2)n1 [CBK103721] is lower in viability at 28.5 h, 10 µM: 104% for the first, 73.9% for the second.

First: CCc1ccc2c(COC(=O)c3cccnc3SC)cc(=O)oc2c1 [CBK297486]
Second: Cc1cc(C)cc(NC(=O)CC2Sc3ccccc3NC2=O)c1 (centres unmarked) [CBK266384]
The viability at 28.5 h, 10 µM of the first is lower: 85% for the first, 94% for the second.

Going from CCn1cc(C(=O)NC2CC3(CCCC3)Oc3ccccc32)c(C)n1 (centres unmarked) [CBK282340] to CC1(C)CC(NC(=O)C2CCN(S(C)(=O)=O)CC2)c2ccccc2O1 (centres unmarked) [CBK304404], the viability at 28.5 h, 10 µM rises from 91.2% to 103%.

Cc1c(Br)c(C(F)(F)F)nn1CC(=O)Nc1cc(C(F)(F)F)ccc1Cl [CBK087518] and O=C(CN1CCCN(c2ncc(C(F)(F)F)cc2Cl)CC1)Nc1c(F)cccc1F [CBK074636] are the same in viability at 28.5 h, 10 µM: 92.5% for the first, 92.5% for the second.

First: O=C(NCCN1CCC(O)(c2cccc(F)c2)CC1)C1CCCCC1 [CBK283281]
Second: COc1ccc2c(c1)OC1(CCN(C(=O)C3CCCC3)CC1)CC2O (centres unmarked) [CBK286400]
The viability at 28.5 h, 10 µM of the first is higher: 96.2% for the first, 84.4% for the second.

Compared with Cc1cccc(-c2csc3c(=O)[nH]c(N4CCC5(CC4)OCCO5)nc23)c1 [CBK291142], Cc1nc2cc(C(=O)N3CCCCC3CN3CCOCC3)ccc2[nH]1 (centres unmarked) [CBK304219] is higher in viability at 28.5 h, 10 µM: 102% for the first, 109% for the second.

Going from CCOC(=O)c1c(NC(=O)CSc2nc[nH]n2)sc2c1CCCCC2 [CBK267231] to CC1CCc2c(sc(NC(=S)NC(=O)c3ccc4c(c3)OCCO4)c2C(N)=O)C1 (centres unmarked) [CBK266370], the viability at 28.5 h, 10 µM rises from 90.8% to 101%.

First: C(=N\c1ccc(-c2nc3ccc(/N=C/c4ccncc4)cc3[nH]2)cc1)/c1ccncc1 [CBK261681]
Second: Nc1ccc2nc(-c3ccccn3)[nH]c2c1 [CBK017167]
The viability at 28.5 h, 10 µM of the first is lower: 89.8% for the first, 100% for the second.

Compared with COc1ccc(-c2cnc(Nc3ccc(N4CCOCC4)cc3)c3nccn23)cn1 [CBK091238], COc1ccccc1C1OC(=O)CC1C(=O)N1CCN(c2ccc(Cl)cc2)CC1 (centres unmarked) [CBK091332] is lower in viability at 28.5 h, 10 µM: 92% for the first, 86.2% for the second.

Compared with Brc1cn2ccnc2c(NCc2ccccn2)n1 [CBK038024], CC1CN(c2cc(CNc3nc4ccccn4c3C#N)ccn2)CCO1 (centres unmarked) [CBK306423] is lower in viability at 28.5 h, 10 µM: 88.7% for the first, 78.7% for the second.

First: Cc1ccc(CN2CC(C(=O)N3CCC(C(=O)O)CC3)CC2=O)cc1 (centres unmarked) [CBK300205]
Second: Cc1ccc(NC(=O)N2CCCC(C(=O)O)C2)cc1 (centres unmarked) [CBK161371]
The viability at 28.5 h, 10 µM of the first is higher: 91.8% for the first, 89.5% for the second.

First: OCc1ccc(-c2nccnc2NCc2cccc(C(F)(F)F)c2)cc1 [CBK037076]
Second: CC(C)(C)NC(=O)COc1ccc(CNCc2ccc(C(=O)O)cc2)cc1 [CBK287204]
The viability at 28.5 h, 10 µM of the first is higher: 114% for the first, 78.1% for the second.

Compared with Cc1cc(Cl)ccc1OCCCC(=O)N1CCc2ccccc21 [CBK059016], Cc1ccc(SCCN2CCN(Cc3ccccc3)CC2)cc1 [CBK268653G] is higher in viability at 28.5 h, 10 µM: 97.8% for the first, 99.1% for the second.

Going from Cc1ccc(-c2ccc(/C=N\NC(=O)C3C(=O)NCC3c3ccccc3)o2)cc1Cl (centres unmarked) [CBK262808] to O=C(NCc1ccccn1)c1ccc(NS(=O)(=O)c2cccc(Cl)c2)cc1 [CBK267249], the viability at 28.5 h, 10 µM rises from 98.7% to 111%.

First: CC(NC(=O)C(C)(C)C)c1nc(-c2ccncc2)n[nH]1 (centres unmarked) [CBK104074]
Second: CN(C)CCNC(=O)c1cccc(-c2cncc(N3CCN(c4ccncc4)CC3)n2)c1 [CBK065391]
The viability at 28.5 h, 10 µM of the first is lower: 91.9% for the first, 100% for the second.

Compared with CC(C)[C@H]1SC(NC[C@H](C)c2ccccc2)=NC1=O [CBK074034], CC(C)[C@@H](Cn1nnc2ccccc21)NC(=O)c1ccco1 [CBK282335] is higher in viability at 28.5 h, 10 µM: 93.6% for the first, 108% for the second.

Compared with O=c1oc(-c2ccoc2)nn1Cc1ccccc1F [CBK283726], O=C(NCCn1c(=O)oc2ccccc21)C(c1cccs1)c1cccs1 [CBK286198] is higher in viability at 28.5 h, 10 µM: 98.5% for the first, 99.8% for the second.

Compared with Cc1nc(C)n(CC2CCCN(CC(=O)NCc3ccccn3)C2)n1 (centres unmarked) [CBK305291], Cc1noc(C)c1CC(=O)N1CCC(c2ccccc2)C1 (centres unmarked) [CBK281959] is higher in viability at 28.5 h, 10 µM: 86.1% for the first, 102% for the second.

Compared with COc1cc(OC)c(NC(=O)CN(C)S(=O)(=O)c2cc(Cl)ccc2Cl)cc1Cl [CBK267399], Cc1cc(C)nc(NC(=O)C(C)Oc2ccc(Cl)cc2C)n1 (centres unmarked) [CBK268111] is higher in viability at 28.5 h, 10 µM: 91.3% for the first, 94.8% for the second.

Going from CCS(=O)(=O)N1CCN(Cc2ccc3c(c2)OCO3)CC1 [CBK074545] to CC1(C)CC(=O)C=C(C(=O)Nc2ccccc2N2CCCNCC2)O1 [CBK038935T], the viability at 28.5 h, 10 µM rises from 92.2% to 112%.

First: CN1C(=O)CC2(C1=O)C(=O)N(CCCn1c(=O)n(C)c3ccccc31)c1ccc(F)cc12 (centres unmarked) [CBK075441]
Second: CN(C)C(=O)CN1C(=O)CC2(C1=O)C(=O)N(CC(=O)O)c1ccc(F)cc12 (centres unmarked) [CBK076119]
The viability at 28.5 h, 10 µM of the first is higher: 110% for the first, 101% for the second.

Going from Cc1ccc(OCC(O)Cn2c(=N)n(CCN3CCCCC3)c3ccccc32)cc1 (centres unmarked) [CBK266375C] to O=C(Nc1ccc2c(c1)CCO2)N1CCCC1c1nc(-c2ccccc2)c2ccccn12 (centres unmarked) [CBK046733], the viability at 28.5 h, 10 µM rises from 98.9% to 117%.

Going from CC(C)(CN1CCOCC1)NC(=O)c1cnc2cc(C(F)(F)F)ccc2c1O [CBK107429] to Nc1nc(OCCN2CCOCC2)cnc1-c1cc(Cl)cc(Cl)c1 [CBK145198], the viability at 28.5 h, 10 µM falls from 102% to 99.8%.

Going from CCOC(=O)NC(=S)NCCCn1ccnc1 [CBK018272] to O=C(NCCCn1ccnc1)c1cccs1 [CBK261740], the viability at 28.5 h, 10 µM falls from 112% to 90.2%.

Compared with c1cc(-c2cnn(-c3ccc4c(c3)CCO4)n2)cs1 [CBK112861], Cc1c(C(C)NCC(C)(C)N(C)C)cnn1-c1ccc(C#N)cc1 (centres unmarked) [CBK306447] is lower in viability at 28.5 h, 10 µM: 93.4% for the first, 87.7% for the second.

First: COc1ccc2c(c1)C1(CC(=O)N(CC(=O)N(C)C)C1=O)C(=O)N2CC(=O)c1ccccc1 (centres unmarked) [CBK075913]
Second: O=C(CNC(=S)NC(=O)c1ccc(Br)o1)c1ccccc1 [CBK265310]
The viability at 28.5 h, 10 µM of the first is lower: 96.9% for the first, 98% for the second.

First: CC1=C(C(=O)N2CCOCC2)C(c2ccc(Cl)cc2)NC(=O)N1c1ccc(C(=O)O)cc1 (centres unmarked) [CBK296999]
Second: O=C(c1ccncc1)N1C2CCC1CC(c1ccc(F)cc1)C2 (centres unmarked) [CBK283763]
The viability at 28.5 h, 10 µM of the first is lower: 93.1% for the first, 94.3% for the second.

First: Cc1noc(C)c1S(=O)(=O)NCc1cc(C)n(C)n1 [CBK062155]
Second: COc1ccc(S(=O)(=O)Nc2nnc(C)s2)cc1 [CBK045543]
The viability at 28.5 h, 10 µM of the first is lower: 103% for the first, 114% for the second.

Compared with O=C1CC(N2CCN(C3CC(=O)N(Cc4ccccc4)C3=O)CC2)C(=O)N1Cc1ccccc1 (centres unmarked) [CBK269198], CC1=CCC2C(=O)N(c3ccccc3)C(=O)C2C1 (centres unmarked) [CBK086490] is lower in viability at 28.5 h, 10 µM: 122% for the first, 84.1% for the second.

Compared with Cn1c(=O)c2[nH]c(N3CCCCC3)nc2n(C)c1=O [CBK027630], CN1CCN(c2ccc(-c3cc(NC4CCCCC4)ncn3)cn2)CC1 [CBK090899] is higher in viability at 28.5 h, 10 µM: 86.1% for the first, 96.7% for the second.

Compared with O=C(Nc1ccccc1)Nc1ccc([N+](=O)[O-])cc1 [CBK016975], COc1ccc(NC(=S)NC(=O)c2cc3c(C)nn(-c4ccccc4)c3s2)cc1[N+](=O)[O-] [CBK265324] is higher in viability at 28.5 h, 10 µM: 99.6% for the first, 102% for the second.

Going from CC1(C)CC(=O)c2sc(NC(=O)c3ccc(OC(F)(F)F)cc3)nc2C1 [CBK144102] to CN1CCC(N(C)C(=O)Nc2ccc3[nH]ccc3c2)C1 (centres unmarked) [CBK156006], the viability at 28.5 h, 10 µM falls from 109% to 92.2%.

First: CCOc1ccccc1C1C=C(C(=O)O)Nc2c(C(=O)Nc3ccccc3)cnn21 (centres unmarked) [CBK287253]
Second: O=C(Nc1ncnc2c1ccn2C1CC(O)C(CO)O1)c1ccccc1 (centres unmarked) [CBK201289]
The viability at 28.5 h, 10 µM of the first is lower: 93.7% for the first, 96.3% for the second.

Compared with CCN(CC)CCCC(C)Nc1ccnc2cc(Cl)ccc12 (centres unmarked) [CBK017143], CCc1nccn1CCC(=O)Nc1ccc2c(c1)nc(CC)n2CC [CBK281629] is lower in viability at 28.5 h, 10 µM: 85.6% for the first, 81.2% for the second.

Going from Cc1n[nH]c(C)c1CNC(=O)c1[nH]c2c(Cl)cccc2c1C [CBK282534] to Cn1ccnc1SCCNC(=O)c1cccc(Cn2cccn2)c1 [CBK282112], the viability at 28.5 h, 10 µM rises from 96% to 105%.

First: CC(C)(C)OC(=O)NCC1(CC(=O)O)CCCCC1 [CBK287030]
Second: CC(C)NCC(O)COC1CCC(C(C)(C)C)CC1 (centres unmarked) [CBK029007C]
The viability at 28.5 h, 10 µM of the first is higher: 93% for the first, 89.2% for the second.

same assay, conditions: human, hela cells, % viability, bulk resorufin, single well

Compared with COc1ccc(Cn2nc(C(=O)Nc3nnc(C(F)(F)F)s3)c3ccccc32)cc1 [CBK047884], Cc1ccc(CN2CCN(Cc3ccc([N+](=O)[O-])cc3)CC2)cc1 [CBK263168] is lower in viability at 28.5 h, 10 µM: 99.3% for the first, 92.9% for the second.
